Records with an inconclusive call do not appear.
Tested on: C2C12 mouse myoblast viability, CellTiter-Glo ATP, 8-48 h
Test: C2C12 myoblast ATP-based viability loss, dose response, cytotoxicity control for HRAS target identification, cell-based, CellTiter-Glo ATP luminescence, 8/24/48 h, dry powder (AID 720603)

Structure (SMILES): COC(=O)c1ccc([C@@H]2c3[nH]c4ccccc4c3C[C@@H](C(=O)OC)N2C(=O)CCl)cc1
- AC50 (measured here: 8 h treatment): 597 nM
- AC50 (measured here: 24 h treatment): 21.2 nM
- AC50 (measured here: 48 h treatment): 80.6 nM

Structure (SMILES): CC(C)(C)OC(=O)NCCOCCOCCOc1ccc(N(C(=O)CCl)C(C(=O)NCCc2ccccc2)c2cccs2)cc1Cl (stereo unspecified)
- AC50 (measured here: 8 h treatment): 1380 nM
- AC50 (measured here: 24 h treatment): 161 nM
- AC50 (measured here: 48 h treatment): 388 nM

Structure (SMILES): COc1ccc(N(C(=O)CCl)C(C(=O)NCCc2ccccc2)c2cccs2)cc1Cl (stereo unspecified)
- AC50 (measured here: 8 h treatment): 17800 nM
- AC50 (measured here: 24 h treatment): 108 nM
- AC50 (measured here: 48 h treatment): 311 nM

Structure (SMILES): C#CCCCC(=O)NCCOCCOCCOc1ccc(N(C(=O)CCl)C(C(=O)NCCc2ccccc2)c2cccs2)cc1Cl (stereo unspecified)
- AC50 (measured here: 24 h treatment): 1330 nM
- AC50 (measured here: 48 h treatment): 2620 nM
